Experimental data: patent US8598357B2, “Benzodioxole piperidine compounds” (Hoffmann-La Roche Inc., priority 2011, dated 2013)
Where two headings read alike, the source gives them in different places.

How the values were obtained:
D2 receptor = D2 receptor (Homo sapiens (Human), UniProt P14416); experiment: Radioligand binding assay ([3H]-spiperone) on membranes of HEK293 EBNA cells expressing human D2 receptor; settings: human receptor in HEK293 EBNA cells; 0.7 nM [3H]-spiperone
Experimental: (§1) HEK293 EBNA cells were transiently transfected with expression plasmids encoding for the human D2 or D3 or for the human 5-HT2A receptor, respectively. The cells were harvested 48 h post-transfection, washed three times with cold PBS and stored at −80° C. prior to use. The pellet was suspended in cold 50 mM Tris-HCl buffer containing 10 mM EDTA (pH 7.4) and was homogenized with a Polytron (Kinematica AG, Basel, Switzerland) for 20-30 sec at 12.000 rpm. After centrifugation at 48.000×g for 30 min at 4° C., the pellet was resuspended in cold 10 mM Tris-HCl buffer containing 0.1 mM EDTA (pH 7.4), homogenized, and centrifuged as above. This pellet was further resuspended in a smaller volume of ice cold 10 mM Tris-HCl buffer containing 0.1 mM EDTA (pH 7.4) and homogenized with a Polytron for 20-30 sec at 12.000 rpm. The protein content of this homogenate was determined with the Bio-Rad (Bradford) Protein Assay (Biorad Laboratories GmbH, München, Germany) according to the instructions of the manufacturer using gamma globulin as the standard. This homogenate was stored at −80° C. in aliquots and thawed immediately prior to use.
(§2) Aliquots of membrane preparations were thawed at RT, resuspended in assay buffer (D2, D3: 50 mM Tris-HCl, 120 mM NaCl, 5 mM MgCl2, 1 mM EDTA, 5 mM KCl, 1.5 mM CaCl2, pH=7.4; 5-HT2A: 50 mM Tris-HCl, 10 mM MgCl2, 1 mM EGTA, pH=7.4), homogenized with a Polytron for 20-30 sec at 12.000 rpm and adjusted to a final concentration of approximately 7.5 μg protein/well (D2, D3) and 15 μg protein/well (5-HT2A), respectively.
(§3) The nonspecific binding was determined with equally composed reaction mixtures in the presence of 10 μM unlabelled spiperone. Per well 45 μl of Microscint 40 (Perkin Elmer, Schwerzenbach, Switzerland) was added, plates for sealed, shaken for 20 min and counted for 3 min on a Topcount Microplate Scintillation Counter (Can berra Packard SA, Ziirich, Switzerland) with quenching correction.
(§4) The CPM value for each duplicate of a concentration of competing compound was averaged (y1), then the % specific binding was calculated according to the equation (((y1−non-specific)/(total binding−non-specific))×100). Graphs were plotted with the % specific binding using XLfit, a curve fitting program that iteratively plots the data using Levenberg-Marquardt algorithm. The single site competition analysis equation used was y=A+((B−A)/(1+((x/C)D))), where y is the % specific binding, A is the minimum y, B is the maximum y, C is the IC50, x is the log 10 of the concentration of the competing compound and D is the slope of the curve (the Hill Coefficient). […] The affinity constant (K) was calculated using the Cheng-Prusoff equation Ki=(IC50/1+([L]/Kd), where [L] is the concentration of radioligand and Kd is the dissociation constant of the radioligand at the receptor as determined by the saturation isotherm.

D3 receptor = D3 receptor (Homo sapiens (Human), UniProt P35462); experiment: Radioligand binding assay ([3H]-spiperone) on membranes of HEK293 EBNA cells expressing human D3 receptor; settings: read-out: D3 Ki; human receptor in HEK293 EBNA cells; 0.5 nM [3H]-spiperone
Experimental: as §1, §2, §3, §4

5-HT2A receptor = 5-HT2A receptor (Homo sapiens (Human), UniProt P28223); experiment: Radioligand binding assay ([3H]-ketanserin) on membranes of HEK293 EBNA cells expressing human 5-HT2A receptor; settings: read-out: 5HT2A Ki
Experimental: as §1, §2, §3, §4

[1] = human receptor in HEK293 EBNA cells, 1.1 nM [3H]-ketanserin

Chain of D3 receptor (P35462 whole entry): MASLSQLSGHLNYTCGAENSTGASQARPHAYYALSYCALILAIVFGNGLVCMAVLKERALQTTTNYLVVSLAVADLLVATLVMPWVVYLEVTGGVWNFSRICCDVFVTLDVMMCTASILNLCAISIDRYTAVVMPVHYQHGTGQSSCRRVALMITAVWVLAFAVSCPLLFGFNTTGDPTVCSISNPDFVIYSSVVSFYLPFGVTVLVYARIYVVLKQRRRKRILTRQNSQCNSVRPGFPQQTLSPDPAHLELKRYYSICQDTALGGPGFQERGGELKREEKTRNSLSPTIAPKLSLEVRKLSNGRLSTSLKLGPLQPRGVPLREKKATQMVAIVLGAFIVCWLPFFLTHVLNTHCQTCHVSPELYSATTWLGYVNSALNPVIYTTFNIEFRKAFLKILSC
Chain of D2 receptor (P14416 whole entry): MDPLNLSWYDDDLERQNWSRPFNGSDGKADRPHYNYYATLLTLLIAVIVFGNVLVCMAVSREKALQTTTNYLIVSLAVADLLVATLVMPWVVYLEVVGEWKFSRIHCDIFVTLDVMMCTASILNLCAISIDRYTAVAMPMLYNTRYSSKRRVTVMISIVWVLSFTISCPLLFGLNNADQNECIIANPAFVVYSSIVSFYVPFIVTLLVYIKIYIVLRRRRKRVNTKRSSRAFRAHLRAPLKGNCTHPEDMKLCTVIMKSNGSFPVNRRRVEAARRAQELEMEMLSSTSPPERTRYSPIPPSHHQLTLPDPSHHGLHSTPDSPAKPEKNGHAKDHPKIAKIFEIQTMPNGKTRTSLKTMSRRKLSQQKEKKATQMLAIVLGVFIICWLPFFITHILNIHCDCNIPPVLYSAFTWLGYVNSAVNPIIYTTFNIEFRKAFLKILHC

Structure (SMILES) | Ki (D2 receptor) | Ki (D3 receptor) | Ki (5-HT2A receptor) | Ki (5-HT2A receptor; [1])
CCC(C)C(=O)N[C@H]1CC[C@H](CCN2CCC(c3cccc4c3OCO4)CC2)CC1 (stereo partly drawn) [Example 51, Trans-N-{4-[2-(4-Benzo[1,3]dioxol-4-yl-piperidin-1-yl)-ethyl]-cyclohexyl}-2-methyl-butyramide] | 0.352 µM | 0.0138 µM | 0.025 µM | –
O=C(N[C@H]1CC[C@H](CCN2CCC(c3cccc4c3OCO4)CC2)CC1)C1CCS(=O)(=O)C1 (stereo partly drawn) [Example 52, 1,1-Dioxo-tetrahydro-thiophene-3-carboxylic acid-trans-{4-[2-(4-benzo[1,3]dioxol-4-yl-piperidin-1-yl)-ethyl]-cyclohexyl}-amide] | 0.13 µM | 0.0163 µM | 0.00457 µM | –
O=C(CC1CCOCC1)N[C@H]1CC[C@H](CCN2CCC(c3cccc4c3OCO4)CC2)CC1 [Example 53, Trans-N-{4-[2-(4-Benzo[1,3]dioxol-4-yl-piperidin-1-yl)-ethyl]-cyclohexyl}-2-(tetrahydro-pyran-4-yl)-acetamide] | 0.352 µM | 0.00881 µM | – | 0.0296 µM
O=C(N[C@H]1CC[C@H](CCN2CCC(c3cccc4c3OCO4)CC2)CC1)C1CCC1 [Example 54, Cyclobutanecarboxylic acid-trans-{4-[2-(4-benzo[1,3]dioxol-4-yl-piperidin-1-yl)-ethyl]-cyclohexyl}-amide] | 0.1 µM | 0.008 µM | 0.0169 µM | –
CS(=O)(=O)CC(=O)N[C@H]1CC[C@H](CCN2CCC(c3cccc4c3OCO4)CC2)CC1 [Example 55, Trans-N-{4-[2-(4-Benzo[1,3]dioxol-4-yl-piperidin-1-yl)-ethyl]cyclohexyl}-2-methanesulfonyl-acetamide] | 0.165 µM | 0.00463 µM | – | 0.027 µM
O=C(N[C@H]1CC[C@H](CCN2CCC(c3cccc4c3OCO4)CC2)CC1)c1ccc(N2CCOCC2)cc1 [Example 56, Trans-N-{-4-[2-(4-Benzo[1,3]dioxol-4-yl-piperidin-1-yl)-ethyl]-cyclohexyl}-4-morpholin-4-yl-benzamide] | 0.593 µM | 0.0101 µM | – | 0.0185 µM
O=C(N[C@H]1CC[C@H](CCN2CCC(c3cccc4c3OCO4)CC2)CC1)c1ccnc2ccccc12 [Example 57, Quinoline-4-carboxylic acid-trans-N-{4-[2-(4-benzo[1,3]dioxol-4-yl-piperidin-1-yl)-ethyl]-cyclohexyl}-amide] | 0.37 µM | 0.00616 µM | – | 0.0231 µM
O=C(N[C@H]1CC[C@H](CCN2CCC(c3cccc4c3OCO4)CC2)CC1)c1ccc2c(c1)OCCO2 [Example 58, 2,3-Dihydro-benzo[1,4]dioxine-6-carboxylic acid-trans-N-{4-[2-(4-benzo[1,3]dioxol-4-yl-piperidin-1-yl)-ethyl]-cyclohexyl}-amide] | 0.345 µM | 0.0037 µM | 0.0201 µM | –
O=C(Cc1ccc2c(c1)OCO2)N[C@H]1CC[C@H](CCN2CCC(c3cccc4c3OCO4)CC2)CC1 [Example 59, 2-Benzo[1,3]dioxol-5-yl-trans-N-{4-[2-(4-benzo[1,3]dioxol-4-yl-piperidin-1-yl)-ethyl]-cyclohexyl}-acetamide] | 0.325 µM | 0.00402 µM | – | 0.0367 µM
O=C(N[C@H]1CC[C@H](CCN2CCC(c3cccc4c3OCO4)CC2)CC1)C1COc2ccccc2C1 (stereo partly drawn) [Example 60, Chroman-3-carboxylic acid-trans-N-{4-[2-(4-benzo[1,3]dioxol-4-yl-piperidin-1-yl)-ethyl]-cyclohexyl}-amide] | 1.05 µM | 0.00673 µM | – | 0.0218 µM
CN1CCC(C(=O)N[C@H]2CC[C@H](CCN3CCC(c4cccc5c4OCO5)CC3)CC2)CC1 [Example 61, 1-Methyl-piperidine-4-carboxylic acid-trans-N-{4-[2-(4-benzo[1,3]dioxol-4-yl-piperidin-1-yl)-ethyl]-cyclohexyl}-amide] | 0.15 µM | 0.0351 µM | – | 0.00591 µM
CC1(C(=O)N[C@H]2CC[C@H](CCN3CCC(c4cccc5c4OCO5)CC3)CC2)COC1 [Example 62, 3-Methyl-oxetane-3-carboxylic acid-trans-N-{4-[2-(4-benzo[1,3]dioxol-4-yl-piperidin-1-yl)-ethyl]-cyclohexyl}-amide] | 0.225 µM | 0.039 µM | – | 0.0221 µM
CO[C@H]1CC[C@H](CC(=O)N[C@H]2CC[C@H](CCN3CCC(c4cccc5c4OCO5)CC3)CC2)CC1 [Example 63, Trans-N-{4-[2-(4-Benzo[1,3]dioxol-4-yl-piperidin-1-yl)-ethyl]-cyclohexyl}-2-(4-methoxy-cyclohexyl)-acetamide] | 0.361 µM | 0.00813 µM | – | 0.0343 µM
C[C@@H](O)C(=O)N[C@H]1CC[C@H](CCN2CCC(c3cccc4c3OCO4)CC2)CC1 [Example 64, (R)-trans-N-{4-[2-(4-Benzo[1,3]dioxol-4-yl-piperidin-1-yl)-ethyl]-cyclohexyl}-2-hydroxy-propionamide] | 0.268 µM | 0.0111 µM | – | 0.0107 µM
O=C(CO)N[C@H]1CC[C@H](CCN2CCC(c3cccc4c3OCO4)CC2)CC1 [Example 65, Trans-N-{4-[2-(4-Benzo[1,3]dioxol-4-yl-piperidin-1-yl)-ethyl]-cyclohexyl}-2-hydroxy-acetamide] | 0.298 µM | 0.00909 µM | – | 0.0214 µM
O=C(N[C@H]1CC[C@H](CCN2CCC(c3cccc4c3OCO4)CC2)CC1)C1(O)CCCCC1 [Example 66, 1-Hydroxy-cyclohexanecarboxylic acid-trans-N-{4-[2-(4-benzo[1,3]dioxol-4-yl-piperidin-1-yl)-ethyl]-cyclohexyl}-amide] | 0.219 µM | 0.0175 µM | 0.00393 µM | –
COC1(C(=O)N[C@H]2CC[C@H](CCN3CCC(c4cccc5c4OCO5)CC3)CC2)CCCCC1 [Example 67, 1-Methoxy-cyclohexanecarboxylic acid-trans-N-{4-[2-(4-benzo[1,3]dioxol-4-yl-piperidin-1-yl)-ethyl]-cyclohexyl}-amide] | 0.197 µM | 0.0386 µM | – | 0.0116 µM
CN1CCN(CC(=O)N[C@H]2CC[C@H](CCN3CCC(c4cccc5c4OCO5)CC3)CC2)CC1 [Example 68, Trans-N-{4-[2-(4-Benzo[1,3]dioxol-4-yl-piperidin-1-yl)-ethyl]-cyclohexyl}-2-(4-methylpiperazin-1-yl)-acetamide] | 0.104 µM | 0.0198 µM | – | 0.031 µM
CS(=O)(=O)N[C@H]1CC[C@H](CCN2CCC(c3cccc4c3OCO4)CC2)CC1 [Example 69, Trans-N-{4-[2-(4-Benzo[1,3]dioxol-4-yl-piperidin-1-yl)-ethyl]-cyclohexyl}-methanesulfonamide] | 0.414 µM | 0.0105 µM | – | 0.0313 µM
O=S(=O)(N[C@H]1CC[C@H](CCN2CCC(c3cccc4c3OCO4)CC2)CC1)c1ccccc1 [Example 70, Trans-N-{4-[2-(4-Benzo[1,3]dioxol-4-yl-piperidin-1-yl)-ethyl]cyclohexyl}-benzenesulfonamide] | 0.0635 µM | 0.00365 µM | 0.0522 µM | –
O=S(=O)(N[C@H]1CC[C@H](CCN2CCC(c3cccc4c3OCO4)CC2)CC1)c1ccc(F)cc1 [Example 71, N-trans-{4-[2-(4-Benzo[1,3]dioxol-4-yl-piperidin-1-yl)-ethyl]-cyclohexyl}-4-fluoro-benzenesulfonamide] | 0.104 µM | 0.00263 µM | 0.0655 µM | –
